Laboratory results from the supplement of paper PMC10883282.

What was measured:
Assay in all cases: relative viability vs DMSO control (72 h) (fraction); higher = more viable cells
SYO-1 = system: SYO-1
In short: (§1)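 Sarcoma cell lines were seeded in 384-well plates at densities chosen for 80–90% confluence, then 24 h later given 2.5 µl of serially diluted compound drawn from source plates spanning 10 mM to 0.0002 mM. They were held 72 h at 37 °C, 5% CO2, with 0.1% DMSO vehicle and a 5 µM positive control included. Relative viability was read with ATPLite as percent growth and averaged over up to triplicate wells. Rescaling placed full at 1 and none at 0.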

SW872 = system: SW872
In short: as §1

KHOS-NP = system: KHOS-NP
In short: as §1

SW684 = system: SW684
In short: as §1

HT1080 = system: HT1080
In short: as §1

G401 = system: G401
In short: as §1

SK-LMS-1 = system: SK-LMS-1
In short: as §1

VA-ES-BJ = system: VA-ES-BJ
In short: as §1

HS729 = system: HS729
In short: as §1

A204 = system: A204
In short: as §1

SW1353 = system: SW1353
In short: as §1

MES-SA = system: MES-SA
In short: as §1

COc1cc2nccc(Oc3ccc(NC(=O)NC4CC4)c(Cl)c3)c2cc1C(N)=O [Lenvatinib]
Conditions	relative viability
A204, 0.00017 µM	1
A204, 0.00051 µM	1.04
A204, 0.00152 µM	1.03
A204, 0.00457 µM	1.02
A204, 0.01372 µM	0.79
A204, 0.04115 µM	0.551
A204, 0.1235 µM	0.406
A204, 0.3704 µM	0.345
A204, 1.111 µM	0.267
A204, 3.333 µM	0.186
A204, 10 µM	0.167
G401, 0.00017 µM	0.992
G401, 0.00051 µM	0.981
G401, 0.00152 µM	1.01
G401, 0.00457 µM	0.982
G401, 0.01372 µM	1.006
G401, 0.04115 µM	0.974
G401, 0.1235 µM	0.919
G401, 0.3704 µM	0.848
G401, 1.111 µM	0.55
G401, 3.333 µM	0.434
G401, 10 µM	0.357
HS729, 0.00017 µM	1.01
HS729, 0.00051 µM	1.07
HS729, 0.00152 µM	1.04
HS729, 0.00457 µM	1.04
HS729, 0.01372 µM	1.016
HS729, 0.04115 µM	1.014
HS729, 0.1235 µM	0.945
HS729, 0.3704 µM	0.833
HS729, 1.111 µM	0.702
HS729, 3.333 µM	0.621
HS729, 10 µM	0.542
HT1080, 0.00017 µM	1.07
HT1080, 0.00051 µM	1.06
HT1080, 0.00152 µM	1.08
HT1080, 0.00457 µM	1.05
HT1080, 0.01372 µM	1.08
HT1080, 0.04115 µM	1.06
HT1080, 0.1235 µM	1.06
HT1080, 0.3704 µM	1.07
HT1080, 1.111 µM	1.09
HT1080, 3.333 µM	1.09
HT1080, 10 µM	1.12
KHOS-NP, 0.00017 µM	1.07
KHOS-NP, 0.00051 µM	1.04
KHOS-NP, 0.00152 µM	1.05
KHOS-NP, 0.00457 µM	1.07
KHOS-NP, 0.01372 µM	1.08
KHOS-NP, 0.04115 µM	1.08
KHOS-NP, 0.1235 µM	1.06
KHOS-NP, 0.3704 µM	1.091
KHOS-NP, 1.111 µM	1.07
KHOS-NP, 3.333 µM	1.09
KHOS-NP, 10 µM	1.08
MES-SA, 0.00017 µM	1.01
MES-SA, 0.00051 µM	0.958
MES-SA, 0.00152 µM	0.971
MES-SA, 0.00457 µM	0.9651
MES-SA, 0.01372 µM	0.942
MES-SA, 0.04115 µM	0.939
MES-SA, 0.1235 µM	0.964
MES-SA, 0.3704 µM	0.936
MES-SA, 1.111 µM	0.765
MES-SA, 3.333 µM	0.597
MES-SA, 10 µM	0.454
SK-LMS-1, 0.00017 µM	1.02
SK-LMS-1, 0.00051 µM	1.01
SK-LMS-1, 0.00152 µM	1.04
SK-LMS-1, 0.00457 µM	1.05
SK-LMS-1, 0.01372 µM	0.998
SK-LMS-1, 0.04115 µM	1.04
SK-LMS-1, 0.1235 µM	0.997
SK-LMS-1, 0.3704 µM	1.04
SK-LMS-1, 1.111 µM	0.98
SK-LMS-1, 3.333 µM	0.953
SK-LMS-1, 10 µM	0.972
SW684, 0.00017 µM	1.13
SW684, 0.00051 µM	1.12
SW684, 0.00152 µM	1.14
SW684, 0.00457 µM	1.133
SW684, 0.01372 µM	1.13
SW684, 0.04115 µM	1.13
SW684, 0.1235 µM	1.11
SW684, 0.3704 µM	1.14
SW684, 1.111 µM	1.16
SW684, 3.333 µM	1.19
SW684, 10 µM	1.11
SW872, 0.00017 µM	1.07
SW872, 0.00051 µM	1.1
SW872, 0.00152 µM	1.08
SW872, 0.00457 µM	1.07
SW872, 0.01372 µM	1.05
SW872, 0.04115 µM	1.05
SW872, 0.1235 µM	1.03
SW872, 0.3704 µM	1.05
SW872, 1.111 µM	1.06
SW872, 3.333 µM	1.05
SW872, 10 µM	0.953
SW1353, 0.00017 µM	1.01
SW1353, 0.00051 µM	0.999
SW1353, 0.00152 µM	0.986
SW1353, 0.00457 µM	0.982
SW1353, 0.01372 µM	0.931
SW1353, 0.04115 µM	0.943
SW1353, 0.1235 µM	0.902
SW1353, 0.3704 µM	0.872
SW1353, 1.111 µM	0.859
SW1353, 3.333 µM	0.83
SW1353, 10 µM	0.817
SYO-1, 0.00017 µM	1.07
SYO-1, 0.00051 µM	1.02
SYO-1, 0.00152 µM	1.02
SYO-1, 0.00457 µM	0.9627
SYO-1, 0.01372 µM	0.864
SYO-1, 0.04115 µM	0.721
SYO-1, 0.1235 µM	0.606
SYO-1, 0.3704 µM	0.504
SYO-1, 1.111 µM	0.472
SYO-1, 3.333 µM	0.459
SYO-1, 10 µM	0.432
VA-ES-BJ, 0.00017 µM	1.07
VA-ES-BJ, 0.00051 µM	1.06
VA-ES-BJ, 0.00152 µM	1.08
VA-ES-BJ, 0.00457 µM	1.1
VA-ES-BJ, 0.01372 µM	1.12
VA-ES-BJ, 0.04115 µM	1.11
VA-ES-BJ, 0.1235 µM	1.13
VA-ES-BJ, 0.3704 µM	1.13
VA-ES-BJ, 1.111 µM	1.15
VA-ES-BJ, 3.333 µM	1.118
VA-ES-BJ, 10 µM	1.04
